Structures can show the parent of a compound that is named as a salt.
How the values were obtained:
[1] = Water solubility of the isolated potassium salt; format: physicochemical; conditions: solid obtained from the acid with KOH in MeOH (potassium salt)
Experimental: The compound of Example 137 was hydrolyzed using an excess of aqueous 10% NaOH in methanol, stirring overnight. The reaction mixture was concentrated in vacuo, water was added, and the solution was extracted with ether. The mixture was acidified; the resultant solid was collected by filtration and dried overnight in a vacuum oven, giving a white solid, m.p. 166-171C. ^1H-NMR (DMSO 300 MHz) δ 1.17 (t, J=7 Hz, 3H), broad peaks totaling 9 protons at 1.32-1.48, 1.51-1.78, 1.90-2.04, 2.25-2.50, 2.80-2.90, 2.95-3.17, 3.45-3.51, 3.95-4.19, 4.41-4.51, 4.06 (q, J=7 Hz, 1H), 6.80 (d, J=9 Hz, 1H), 7.01 (t, J=7 Hz, 1H), 7.15 (d, J=8 Hz, 1H), 7.26-7.40 (m, 2H), 7.40-7.48 (m, 1H), 7.51 (dd, J=9 Hz, 2 Hz, 1H), 7.99 (d, J=9 Hz, 1H). Anal. Calcd. for C23H24ClNO4S: C, 61.94; H, 5.42; N, 3.14. Found: C, 61.75; H, 5.65; N, 3.15. The resultant acid (303 mg, 0.631 mmol) was dissolved in 3 mL MeOH. A KOH solution (38 mg, 0.595 mmol, of 87.6% KOH) in 1 ml MeOH was added. The resulting solution was concentrated in vacuo, and 5 mL ether was added. The mixture was stirred for one hour to form a powder, which was filtered and dried in the vacuum oven at 60C to yield 307 mg of a solid, water soluble product. […]

Row | melting point | solubility in water [1] | SMILES
1 | 166 to 171 °C | water soluble | CCOc1ccccc1Sc1ccc(/C=C/C(=O)N2CCCC(C(=O)O)C2)cc1Cl (stereo not shown) [Example 155, (2-Ethoxyphenyl)-[2-chloro-4-(E-[(3-carboxypiperidin-1-yl)carbonyl]ethenyl)phenyl]sulfide]
2 | 73 to 75 °C | – | CCOC(=O)C1CCCN(C(=O)/C=C/c2ccc(Sc3ccc4c(c3)OCCO4)c([N+](=O)[O-])c2)C1 (stereo not shown) [Example 197, (Benzodioxan-6-yl)[2-nitro-4-(E-((3-carboethoxypiperidin-1-yl)carbonyl)ethenyl)phenyl]sulfide]
3 | 70 to 72 °C | – | COC(=O)C1CNCCN1C(=O)/C=C/c1ccc(Sc2ccc3c(c2)OCCO3)c(C(F)(F)F)c1 (stereo not shown) [Example 255, (Benzodioxan-6-yl)[2-trifluoromethyl-4-(E-((2-carbomethoxypiperazin-1-yl)carbonyl)ethenyl)phenyl]sulfide]
4 | 88 °C (dec.) | – | O=C(O)C1CCN(C(=O)/C=C/c2ccc(Sc3ccc4c(c3)OCCO4)c(C(F)(F)F)c2)CC1 [Example 263, (Benzodioxan-6-yl)[2-trifluoromethyl-4-(E-((4-carboxypiperidin-1-yl)carbonyl)ethenyl)phenyl]sulfide]
5 | 90 °C (dec.) | – | O=C(O)C1CCCCN1C(=O)/C=C/c1ccc(Sc2ccc3c(c2)OCCO3)c(C(F)(F)F)c1 (stereo not shown) [Example 264, (Benzodioxan-6-yl)[2-trifluoromethyl-4-(E-((2-carboxypiperidin-1-yl)carbonyl)ethenyl)phenyl]sulfide]
6 | 56 °C (dec.) | – | COC(=O)C1CN(C(=O)/C=C/c2ccc(Sc3ccc4c(c3)OCCO4)c(C(F)(F)F)c2)CCN1C(=O)OC (stereo not shown) [Example 269, (Benzodioxan-6-yl)[2-trifluoromethyl-4-(E-((3-carbomethoxy-4-methoxycarbonylpiperazin-1-yl)carbonyl)ethenyl)phenyl]sulfide]
7 | 102 °C (dec.) | – | COC(=O)N1CCN(C(=O)/C=C/c2ccc(Sc3ccc4c(c3)OCCO4)c(C(F)(F)F)c2)C(C(=O)O)C1 (stereo not shown) [Example 271, (Benzodioxan-6-yl)[2-trifluoromethyl-4-(E-((2-carboxy-4-methoxycarbonylpiperazin-1-yl)carbonyl)ethenyl)phenyl]sulfide]
8 | 230 to 240 °C (dec.) | – | Nc1ccccc1Sc1ccc(/C=C/C(=O)N2CCOCC2)c(Cl)c1Cl [Example 410, (2-Aminophenyl)[2,3-dichloro-4-(E-((4-morpholinyl)carbonyl)ethenyl)phenyl]sulfide]

The next lines start with the molecule.

Row | SMILES | melting point | solubility in water [1]
9 | O=C(O)CN1CCN(C(=O)/C=C/c2ccc(Sc3ccc4c(c3)OCCO4)c([N+](=O)[O-])c2)CC1 (as salt: salt) [Example 221, (Benzodioxan-6-yl)[2-nitro-4-(E-((4-carboxymethylpiperazin-1-yl)carbonyl)ethenyl)phenyl]sulfide] | 120 °C (dec.) | –
10 | CCOc1ccccc1Sc1ccc(/C=C/C(=O)N2CCCCC2C(=O)O)cc1Cl (stereo not shown) [Example 158, (2-Ethoxyphenyl)-[2-chloro-4-(E-[(2-carboxypiperidin-1-yl)carbonyl]ethenyl)phenyl]sulfide] | 170 to 171 °C | –
11 | CCOC(=O)C1CCCCN1C(=O)/C=C/c1ccc(Sc2ccc3c(c2)OCCO3)c([N+](=O)[O-])c1 (stereo not shown) [Example 203, (Benzodioxan-6-yl)[2-nitro-4-(E-((2-carboethoxypiperidin-1-yl)carbonyl)ethenyl)phenyl]sulfide] | 74 to 75 °C | –
12 | CC(C)(C)OC(=O)N1CCN(C(=O)/C=C/c2ccc(Sc3ccc4c(c3)OCCO4)c([N+](=O)[O-])c2)CC1 [Example 205, (Benzodioxan-6-yl)[2-nitro-4-(E-((4-tert-butoxycarbonylpiperazin-1-yl)carbonyl)ethenyl)phenyl]sulfide] | 165 to 167 °C | –
13 | O=C(O)C1CCCCN1C(=O)/C=C/c1ccc(Sc2ccc3c(c2)OCCO3)c([N+](=O)[O-])c1 (stereo not shown) [Example 220, (Benzodioxan-6-yl)[2-nitro-4-(E-((2-carboxypiperidin-1-yl)carbonyl)ethenyl)phenyl]sulfide] | 165 °C (dec.) | –
14 | COC(=O)C1CN(C(=O)OC(C)(C)C)CCN1C(=O)/C=C/c1ccc(Sc2ccc3c(c2)OCCO3)c(C(F)(F)F)c1 (stereo not shown) [Example 253, (Benzodioxan-6-yl)[2-trifluoromethyl-4-(E-((2-carbomethoxy-4-tert-butoxycarbonylpiperazin-1-yl)carbonyl)ethenyl)phenyl]sulfide] | 85 to 87 °C | –
15 | CCOc1ccccc1Sc1ccc(/C=C/C(=O)N2CCCC(C(=O)O)C2)c(Cl)c1Cl (stereo not shown) [Example 343] | – | water-soluble
